One test has as its target T1, hTRPM8 channel (Homo sapiens, UniProt Q7Z2W7).
T1 construct: host or cells: CHO cells
Briefly: TRPM8 receptor assay, calcium entry (Fluo-8, FLIPR) in transfected CHO cells. It is filed as cell-based. The note with it: for pEC50: CHO cells transfected with hTRPM8, Fluo-8 calcium kit, FLIPR; for Potency Relative to L-menthol: ratio of TRPM8 EC50 values, menthol = 1.0. From the text:
FIG. 4. Agonist activities of TRPM8 analogs. […] The relative fluorescence (RF) unit on the ordinate represents calcium entry into transfected cells. […] The structures of these compounds are in Table 4.
The applicant has synthesized and examined a series of p-menthanecarboxamides conjugated to amino acid esters. […] This class of molecules is called N-alkylcarbonyl-amino acid esters. GlyOiPr is a p-menthanecarboxamide conjugate of glycine isopropyl (iPr) ester. It is similar in structure to WS-5, a cooling agent used as a food additive. WS-5 is the p-menthane-glycine ethyl (Et) ester, or GlyOEt. […] These in vitro effects were measured in CHO cells transfected with the hTRPM8 channel. Receptor activity was quantified using a Fluo-8 calcium kit and a Fluorescence Imaging Plate Reader ([…]™).

In the next test the test system is philtrum skin. Briefly: Cooling duration bioassay on philtrum skin. The class given is in vivo, human. An excerpt: (§1) FIG. 1. Comparison of cooling duration of various p-menthanecarboxamide analogs on philtrum skin versus ocular margins. The philtrum skin is keratinized, but the ocular margins are not. The test substances numbered 1 to 11 are: D-Ala-OiPr, Gly-OiPr, D-Ala-OEt, D-Ala-OMe, D-Ala-GlynPr, GlynPr, D-Ala-OnBu, GlynBu, GlyOEt, L-Ala-OEt, and N-Me-D-Ala-OEt, respectively. Two outliers (1 and 2) were identified as preferred embodiments because they preferentially cool the ocular margins. The nasal cavity surfaces like the ocular margins are not keratinized.
(§2) Cooling agents have been assayed in various ways depending on intended use. For example, for the skin the test substance can be applied on philtrum skin, using descriptions of coolness on a scale of 0 to 3. For the ocular surface, the active ingredient can be applied to the closed eyelids using a wipe. In the oral cavity, drug applications are on the posterior dorsal surface of the tongue. For the oropharyngeal surface, the cooling agent may be applied as an orally disintegrating tablet. The ability of a cooling agent to antagonize a noxious stimuli may also be tested, using nociception from citric acid or chili pepper sauce. Responses are usually measured using a Visual Analog Scale with a numerical rating. For nasal responses, however, such procedures have not been standardized. Some endpoints to consider are open and comfortable breathing, the presence or absence of sniffles, and the secretion of phlegm.

A further test concerns nasal cavity. Briefly: Nebulizer screening of TRPM8 agonists for sensations in the nasal cavity. The class given is in vivo, human. To be noted: NasoNeb nebulizer; for Sensory effects after delivery into the nasal cavity: 3 to 5 sec per nostril. Here is the method:
Formulations for nebulization with NasoNeb® used a standard recipe of (Table 8): 1% of the active ingredient (1 to 10 mg/mL), 2% Tween 80 (Polysorbate 80), 1 to 5% ethanol, and made up to 100% with water. The mixture is centrifuged in a FlackTek, Inc., Speedmixer for at least 10 min at 3000 rpm. The Speedmixer spins the sample in 3 dimensions. The result is a white homogeneous liquid suspension with some of the solids now dissolved. For dosing, ˜2 to 3 mL is loaded into the canister of the nebulizer. The nebulizer nozzle tip is placed in the nostril and activated by pressing a button for 3 to 5 sec using a clock timer. […] For D-Ala-OiPr a 5-sec activation will deliver 2*0.73 mL*2 mg/ml, or a total dose of 3 mg per nose. The nasal cavity is relatively tolerant to exogenous agents with irritant properties, as many rinses are used for rhinitis and sinusitis. For some p-menthanecarboxamide analogs, a 2% (20 mg/mL) solution is possible and contemplated. An ideal agent reproduces a comfortable cooling or sensations of negative heat flux in the nasal cavity. […] Heat flux refers to the rate of heat transfer per unit area. The sinonasal cavity mucosa differs from philtrum skin and ocular margins in histology, so the choice of the right molecule must be made by experiment. The TRPM8 agonists were chosen for screening using a nebulizer for delivery. The NasoNeb system is powerful and effective for the OMC (FIG. 3). The delivery time per nostril in three to five seconds. […] These parameters were estimated in the initial trials: • Onset and offset of cooling sensations in the nasal cavity. • The intensity and quality of the cooling sensations in the nasal cavity. • Presence of effects such as sneezing or cough after dosing. • Degree of nasal stuffiness on a scale of 0 to 5. • Degree of rhinorrhea and phlegm in nasal secretions. • Questions regarding comfort and sleep at night.

Another test deals with ocular margins. Briefly: Cooling duration bioassay on eyelids/ocular margins. The class given is in vivo, human. To be noted: for Eyelids/Ocular Surface: Table 6, cooling duration, non-keratinized.
Description: as §1, §2

A further test deals with oral cavity. The test can be described thus: Chili-pepper sauce test (oral cavity). The class given is in vivo, human. The note with it: Table 6; grades 0, +, ++ without key. Also on record: scale not given here.
Description: as §2

The test system of a further test is ostiomeatal complex. Briefly: Case studies: nebulized cooling agent in subjects with rhinitis and rhinosinusitis. The class given is in vivo, human. The note with it: NasoNeb delivery in subjects with rhinosinusitis. An excerpt:
Eight subjects with rhinitis and rhinosinusitis volunteered to test cooling agents delivered with the NasoNeb® nebulizer (FIG. 3). The results were clear, robust, and evident. No statistical analysis was necessary. In a 3 to 5-day course of nebulization t.i.d., all subjects reported the ability to manage and control stuffed-up breathing in their activities. All reported comfortable sleep. The sounds of sniffling and congestion of the nose (“sniffles”), snorting, or gurgling were still present, but to a lesser degree. The subject felt it was easier to blow out liquids from the nasal cavity onto a tissue, and the volume and frequency of blowing decreased. Viscous yellow mucus was less in volume and density. The number of wipes deposited daily into a waste basket decreased by >50%. The subjects-were cheerful and enthusiastic because nasal discomfort was under control. As one subject remarked: “The stuffed-up nose problem is now history!” Severat of these cases are reported below as “Case Studies.”
The subject was given a NasoNeb® nebulizer (unavailable in China) and five individual bottles containing 15 mL of a 1% GlyOiPr solution (suspended in 2% Tween 80, 5% ethanol, and 92% water). They were shown how to load the NasoNeb canister with about 2 mL of liquid and activate the device for a 3-second dose into each nostril. The recommended dosage was three times a day, starting in the morning and at about 6-hour intervals, and for five days.
The subject agreed to using the NasoNeb nebulizer with a cooling agent. They were given a NasoNeb nebulizer and three bottles, each containing 15 ml of a 1% GlyOiPr solution (suspended in 2% Tween 80, 5% ethanol, and 92% water). They were shown how to load the NasoNeb canister with about 2 mL of liquid and activate the device for a 3-second dose into each nostril. The recommended dosage was three times a day, starting in the morning and at about 6-hour intervals, and for five days. After a 5-day trial, the subject noted a significant improvement in sleep and comfortable breathing. […] Their headaches were gone, and their appetite improved. They were advised to continue using the Nebulizer/coolant for another week and then on an as-needed basis. Their family has noticed that the subject has become less withdrawn, more engaging, and interested in their surroundings.
The subject volunteered for a trial with GlyOiPr. They were given a NasoNeb® machine and a plastic squeeze bottle containing 50 mL of GlyOiPr at 3 mg/mL suspended in 1% ethanol/2% polysorbate 80. They learned how to load the canister and activate the pump. Then, they were instructed to rinse their nose thoroughly first thing in the morning and then use the Nebulizer at 5 sec per nostril to deliver the solution. The procedure was to be repeated at 2 hours and 5 hours later to total three daily activations. The subject was interviewed after dosing for three days. They said breathing was much easier at night after the dosing, and they slept well. Nasal secretions were still present but less in volume. […] They were encouraged to use the Nebulizer as needed but not to exceed three daily doses. Three weeks after the start of the experiment, they reported that they were in complete control of their rhinitis. They would do a single dose at night before sleep and one in the morning when needed. They no longer felt congested, and the headaches were gone. The slimy phlegm in the nostrils was gone, and crusting was absent. Their nose felt clean. Their social life improved.
Their main complaint was episodes at night when they would wake up and not be able to breathe comfortably. Sleep apnea and lung disorders were ruled out, and the diagnosis was rhinosinusitis. This was confirmed by a computerized tomography scan and endoscopic examination by a qualified ENT specialist. They agreed to test the preferred embodiments GlyOnPr, GlyOiPr, D-Ala-OnPr, and D-Ala-OiPr systematically, one after the other.

Setting [1] is: Table 6, cooling duration, keratinized skin.

Results on eleven compounds are retold here after US20250288583A1, “Treatment of Mucus Hypersecretion” (priority 2024, published 2025).

pEC50: −log10 of the molar value.

T1 sequence (Q7Z2W7 whole entry): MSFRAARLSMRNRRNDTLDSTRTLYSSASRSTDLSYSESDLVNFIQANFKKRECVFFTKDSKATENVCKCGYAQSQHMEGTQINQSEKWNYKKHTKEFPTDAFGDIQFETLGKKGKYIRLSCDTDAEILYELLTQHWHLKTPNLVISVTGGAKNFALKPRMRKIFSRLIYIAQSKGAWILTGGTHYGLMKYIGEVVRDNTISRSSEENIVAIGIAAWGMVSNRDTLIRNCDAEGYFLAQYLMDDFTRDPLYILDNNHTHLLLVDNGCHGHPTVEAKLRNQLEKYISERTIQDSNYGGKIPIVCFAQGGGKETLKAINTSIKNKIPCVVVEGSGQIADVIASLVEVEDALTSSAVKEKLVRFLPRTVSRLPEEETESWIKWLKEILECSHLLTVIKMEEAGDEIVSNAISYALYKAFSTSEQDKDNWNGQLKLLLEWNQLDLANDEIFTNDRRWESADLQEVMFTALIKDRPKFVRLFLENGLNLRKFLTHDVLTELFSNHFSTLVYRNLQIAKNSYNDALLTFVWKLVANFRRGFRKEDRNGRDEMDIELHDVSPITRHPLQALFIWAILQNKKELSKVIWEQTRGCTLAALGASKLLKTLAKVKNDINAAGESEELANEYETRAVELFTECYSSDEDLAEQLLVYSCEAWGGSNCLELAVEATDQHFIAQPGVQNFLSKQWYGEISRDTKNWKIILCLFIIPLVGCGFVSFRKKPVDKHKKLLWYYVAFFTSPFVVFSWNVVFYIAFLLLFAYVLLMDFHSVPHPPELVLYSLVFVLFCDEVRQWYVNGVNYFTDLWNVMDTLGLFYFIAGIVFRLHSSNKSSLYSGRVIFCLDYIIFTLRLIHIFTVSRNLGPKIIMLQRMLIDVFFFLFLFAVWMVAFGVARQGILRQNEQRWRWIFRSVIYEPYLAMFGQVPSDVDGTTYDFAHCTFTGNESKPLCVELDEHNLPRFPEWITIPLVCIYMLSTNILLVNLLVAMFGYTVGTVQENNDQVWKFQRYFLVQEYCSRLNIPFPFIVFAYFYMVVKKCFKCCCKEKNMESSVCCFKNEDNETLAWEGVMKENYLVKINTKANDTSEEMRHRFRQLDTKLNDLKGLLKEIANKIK

For the compound `CCOC(=O)[C@@H](C)NC(=O)[C@@H]1C[C@H](C)CC[C@H]1C(C)C` [D-Ala-OEt, (R)-2-[((1R,2S,5R)-2-isopropyl-5-methyl-cyclohexanecarbonyl)-amino]-propionic acid ethyl ester], on hTRPM8 channel, the pEC50 (usually the negative decadic logarithm of the EC50, by convention in mol/L) was 6.57 and the “Potency Relative to L-menthol” value was determined as 14.0. Also, the “Philtrum Skin” value with philtrum skin (setting [1]) was 103 min. Further, in the test with nasal cavity, the “Cooling duration in the nasal cavity” value is given as around 15 min and the “Sensory effects after delivery into the nasal cavity” value (“Sensory effects” for short) was “Bitter taste, causes coughing”. Moreover, the “Eyelids/Ocular Surface” value in the test with ocular margins was 180 min.
Consider `COC(=O)C(C)NC(=O)[C@@H]1C[C@H](C)CC[C@H]1C(C)C` (stereo partly drawn) [D-Ala-OMe], for which, at hTRPM8 channel, the pEC50 is 6.23 and the “Potency Relative to L-menthol” value is 6.4. Further, the “Philtrum Skin” value in the test with philtrum skin (setting [1]) was 77 min. Moreover, the “Eyelids/Ocular Surface” value in the test with ocular margins amounted to 120 min.
Consider `CCCCOC(=O)C(C)NC(=O)[C@@H]1C[C@H](C)CC[C@H]1C(C)C` (stereo partly drawn) [D-Ala-OnBu], for which the “Chili-Pepper Sauce Test” value in the test with oral cavity is 0. Further, at hTRPM8 channel, the pEC50 was 5.99 and the “Potency Relative to L-menthol” value amounted to 3.7. In addition, the “Philtrum Skin” value in the test on philtrum skin (setting [1]) amounted to 80 min. Further, the “Eyelids/Ocular Surface” value in the test with ocular margins amounted to 40 min.
Turning to `CCCOC(=O)[C@@H](C)NC(=O)[C@@H]1C[C@H](C)CC[C@H]1C(C)C` [D-Ala-OnPr, (R)-2-[((1R,2S,5R)-2-isopropyl-5-methyl-cyclohexanecarbonyl)-amino]-propionic acid n-propyl ester], in the test on philtrum skin (setting [1]), the “Philtrum Skin” value is listed as 108 min. In addition, in the test on nasal cavity, the “Sensory effects” value is given as “Strong penetrating cool at 3 mg/mL. Excellent for viral ARS”. In the test with ostiomeatal complex, the “Relief of stuffiness and breathing” value is on record as “provided relief”. Also, the “Eyelids/Ocular Surface” value in the test with ocular margins is on record as 65 min.
Consider `CC(C)[C@@H]1CC[C@@H](C)C[C@H]1C(=O)NCCc1ccccn1` [FEMA 4549, (1R,2S,5R)-N-(2-(pyridin-2-yl)ethyl)-3-p-menthanecarboxamide, reference compound], for which the “Sensory effects” value in the test on nasal cavity was “Although potent on TRPM8 receptor, slow onset and absence of refreshing cooling”.
On to `COC(=O)CNC(=O)[C@@H]1C[C@H](C)CC[C@H]1C(C)C` [GlyOMe], for which, at hTRPM8 channel, the pEC50 was 6.30 and the “Potency Relative to L-menthol” value came to 7.6. Further, the “Philtrum Skin” value with philtrum skin (Table 7, Gly esters) was determined as 10 min. Further, the “Ocular Surface” value in the test with ocular margins (Table 7, Gly esters) is given as 5 min.
With `CCOC(=O)[C@H](C)NC(=O)[C@@H]1C[C@H](C)CC[C@H]1C(C)C` [L-Ala-OEt, (S)-2-[((1R,2S,5R)-2-isopropyl-5-methyl-cyclohexanecarbonyl)-amino]-propionic acid ethyl ester], the “Chili-Pepper Sauce Test” value with oral cavity was 0. Moreover, at hTRPM8 channel, the pEC50 was 4.62 and the “Potency Relative to L-menthol” value amounted to 0.2. Also, in the test on philtrum skin (setting [1]), the “Philtrum Skin” value worked out at 34 min. In the test on nasal cavity, the “Sensory effects” value was “Very little cooling, low potency on TRPM8, good only as negative control”. Besides, the “Eyelids/Ocular Surface” value in the test on ocular margins is on record as 0 min.
For `CCOC(=O)C(C)NC(=O)[C@@H]1C[C@H](C)CC[C@H]1C(C)C` (stereo partly drawn) [L-Ala-OiPr], the “Chili-Pepper Sauce Test” value in the test with oral cavity is recorded as 0. The “Philtrum Skin” value in the test on philtrum skin (setting [1]) was 27 min. For the same compound, the “Eyelids/Ocular Surface” value in the test with ocular margins came to 15 min.
Take `CCOC(=O)C(C)NC(=O)[C@@H]1C[C@H](C)CC[C@H]1C(C)C` (stereo partly drawn) [L-Ala-OnBu]: in the test with oral cavity, the “Chili-Pepper Sauce Test” value was found to be 0. The “Philtrum Skin” value in the test on philtrum skin (setting [1]) stood at 0 min. Besides, in the test with ocular margins, the “Eyelids/Ocular Surface” value is 0 min.
On to `CCOC(=O)C(C)NC(=O)[C@@H]1C[C@H](C)CC[C@H]1C(C)C` (stereo partly drawn) [L-Ala-OnPr], for which the “Chili-Pepper Sauce Test” value with oral cavity amounted to 0. In addition, the “Philtrum Skin” value with philtrum skin (setting [1]) amounted to 22 min. Moreover, the “Eyelids/Ocular Surface” value with ocular margins was found to be 10 min.
Take `O=C1NC(c2cccc([N+](=O)[O-])c2)=CCN1c1ccccc1O` [icilin, 1-[2-hydroxy]-4-[3-nitrophenyl]-1,2,3,6-tetrahydropyrimidine-2-one, reference compound]: in the test on nasal cavity, the “Sensory effects” value was “Difficult to form a homogeneous suspension, causes systemic cooling at higher doses”.
